Measurements: patent US20250019371A1, “SMALL-MOLECULAR INHIBITORS FOR THE BETA-CATENIN/ B-CELL LYMPHOMA 9 PROTEIN-PROTEIN INTERACTION” (H. LEE MOFFITT CANCER CENTER AND RESEARCH INSTITUTE, INC., priority 2021, published 2025)

What was measured:
[1] = test system: SW480; assay: MTS cell viability assay, SW480; assay type: cell-based; conditions: Homo sapiens, 72 h, Wnt/β-catenin hyperactive, mean ± SD (n = 3)
Experimental: (§1) MTS Cell Growth Inhibition Experiments. Colorectal cancer cells (SW480 and HCT116) and triple negative breast cancer cells (MDA-MB-231 and MDA-MB-468) were seeded in 96-well plates at 5×10^3 cells/well in DMEM with 10% FCS, maintained overnight at 37° C., and incubated with the tested compounds at various concentrations. Human mammary epithelial cell MCF10A were seeded in 96-well plates at 1×10^4 cells/well in MEGM (CC-3150, Lonza) with 100 ng/mL cholera toxin, maintained overnight at 37° C., and incubated with the tested compounds at various concentrations. Cell viability was monitored after 72 h using a freshly prepared mixture of 1 part phenazine methosulfate (PMS, Sigma) solution (0.92 mg/mL) and 19 parts 3-(4,5-dimethylthiazol-2-yl)-5-(3-carboxymethoxyphenyl)-2-(4-sulfophenyl)-2H-tetrazolium (MTS, Promega) solution (2 mg/mL). Cells were incubated in 10 μL of this solution at 37° C. for 3 h, and A490 was measured. […] Experiments were performed in triplicate.

[2] = test system: HCT116; assay: MTS cell viability assay, HCT116; assay type: cell-based; conditions: Homo sapiens, HCT-116; 72 h, Wnt/β-catenin hyperactive, mean ± SD (n = 3)
Experimental: as §1

[3] = test system: MDA-MB-231; assay: MTS cell viability assay, MDA-MB-231; assay type: cell-based; conditions: Homo sapiens, 72 h, Wnt/β-catenin hyperactive, mean ± SD (n = 3)
Experimental: as §1

[4] = test system: MDA-MB-468; assay: MTS cell viability assay, MDA-MB-468; assay type: cell-based; conditions: Homo sapiens, 72 h, Wnt/β-catenin hyperactive, mean ± SD (n = 3)
Experimental: as §1

[5] = test system: MCF10A; assay: MTS cell viability assay, MCF10A; assay type: cell-based, human; conditions: Homo sapiens, MCF-10A; 72 h, Wnt/β-catenin normal, mean ± SD (n = 3)
Experimental: as §1

[6] = test system: Wnt/β-catenin hyperactive cancer cells; assay: MTS cell viability assays, cell panel; assay type: cell-based; conditions: SW480, HCT116, MDA-MB-231, MDA-MB-468; read-out: IC50s for viability of Wnt/β-catenin hyperactive cancer cells
Experimental: as §1

[7] = test system: Wnt/β-catenin signaling (TOPFlash luciferase reporter); assay: TOPFlash luciferase reporter assay in SW480 cells; assay type: cell-based; conditions: Homo sapiens, 24 h
Experimental: The suppressing effect of the inhibitors on transactivation of Wnt/β-catenin signaling was evaluated by the TOPFlash/FOPFlash luciferase reporter assay. In the TOPFlash assay, the luciferase reporter has three wild-type Tcf4 binding sites, while in the FOPFlash assay Tcf4 binding sites were mutated. These tandem Tcf binding sites controls the expression ratio of the firefly luciferase in TOPFlash/FOPFlash assays. The renilla luciferase reporter construct (pCMV-RL) was used as the internal control to normalize luciferase reporter signals and eliminate any possible systematic errors. […] This selectivity trend is consistent with that from MTS cell viability assays. Therefore, further cell-based studies were focused on compound 30.
Cell Transfection and Luciferase Assay. FuGENE6 (E269A, Promega) 96 well plate format was used for the transfection of SW480 cells according to the manufacturer's instruction. SW480 cells were co-transfected with 60 ng the TOPFlash or FOPFlash firefly luciferase reporter gene and 40 ng renilla luciferase pCMV-RL normalization reporter gene. Cells were cultured in DMEM and 10% FBS at 37° C. for 24 h, and different concentrations of inhibitors or DMSO was added. After 24 h, the luciferase reporter activity was measured using the Dual-Glo system (E2940, Promega). […]

[8] = test system: Axin2, cyclin D1 and LEF1 mRNA; assay: qPCR of Wnt target genes in SW480 cells; assay type: cell-based, human; conditions: 24 h, HPRT spared
Experimental: Quantitative Real Time PCR analysis. SW480 cells at 1×10^6 cells/mL were treated with inhibitors at different concentrations for 24 h. MDA-MB-231 cells at 1×10^6 cells/mL were treated with 100 ng/mL recombinant Wnt 3a (rmW3aL-010, Time BioScience) for 30 min, then the inhibitors at different concentration were added and incubated for 24 h. Total RNAs were extracted with TRIzol (15596026, Life Technologies), and the cDNA was synthesized with the superscript III first-strand kit (18080-051, Invitrogen). qPCR experiments were performed using the iQTM SYBR green supermix kit (170-8880, BIO-RAD) on an CFX96 Real Time System (BIO-RAD). The threshold cycle (CT) values were normalized to that of internal reference GAPDH. Experiments were performed in triplicate. The primer pairs are shown below

[9] = test system: β-catenin/BCL9 PPI; assay: Co-immunoprecipitation in HCT116 cells, β-catenin/BCL9; assay type: cell-based; conditions: 24 h, full-length proteins
Experimental: (§2) C0-Immunoprecipitation (C0-IP) Experiments. HCT116 cancer cells with hyperactive 8-catenin signaling at 1×10^6 cells/mL were treated with different concentrations of the inhibitor for 24 h. Cells were then lysed in buffer containing 50 mM Tris, pH 7.4, 150 mM NaCl, 1% Nonidet P-40, 2 mM EDTA, and protease inhibitors. The cell lysates were pre-adsorbed to A/G plus agarose (sc-2003, Santa Cruz Biotechnology) at 4° C. for 1 h. Pre-adsorbed lysates were incubated with a specific primary antibody against β-catenin (610153, BD Biosciences) overnight at 4° C. A/G plus agarose was then added to the lysate mixture and incubated for 3 h. The beads were washed four times with the lysis buffer at 4° C. The bound protein was eluted by boiling in the SDS sample buffer and loaded onto 8% SDS polyacrylamide gel for electrophoretic analysis. Separated proteins were transferred onto nitrocellulose membranes for immunoblot analysis. The antibodies against BCL9 (ab37305, Abcam) and E-cadherin (610404, BD Biosciences), were incubated with the membranes, respectively. IRDye 680LT goat anti mouse IgG (827-11080, LiCOR) and IRDye 800CW goat anti rabbit IgG (926-32211, LiCOR) were used as the secondary antibodies. The images were detected by the Odyssey Infrared Imaging System (LiCOR). Experiments were performed in triplicate.

[10] = test system: β-catenin/E-cadherin PPI; assay: Co-immunoprecipitation in HCT116 cells, β-catenin/E-cadherin; assay type: cell-based; conditions: concentrations sufficient to disrupt β-catenin/BCL9
Experimental: as §2

Structure (SMILES): CC(C)(Oc1cccc(N2CCC[C@H](C(=O)N(Cc3ccc(-c4cccs4)cc3)C3CC3)C2)c1)C(=O)NS(=O)(=O)c1ccc(C#N)cc1 [Compound 30, (S)-((4-Cyanophenyl)sulfonyl) (2-(3-(3-(cyclopropyl(4-(thiophen-2-yl)benzyl)carbamoyl)piperidin-1-yl)phenoxy)-2-methylpropanoyl)amide]
- IC50 [1]: 16.3 ± 2.04 µM
- IC50 [2]: 29.6 ± 1.02 µM
- IC50 [3]: 14.3 ± 0.57 µM
- IC50 [4]: 17.8 ± 1.01 µM
- IC50 [5]: 139 ± 3.16 µM
- IC50 [6]: 14 to 30 µM
- IC50 [7]: 6.6 µM
- transcription of Wnt target genes Axin2, cyclin D1, LEF1 (qPCR) [8]: dose-dependently inhibited transcription of these Wnt target genes
- disruption of β-catenin/BCL9 PPI in cells (co-IP) [9]: disrupted the β-catenin/BCL9 PPI in a dose-dependent manner
- effect on β-catenin/E-cadherin PPI in cells (co-IP) [10]: did not affect the β-catenin/E-cadherin PPI
